From patent publication US20080145453A1, “Novel Dihydropyrimidine Derivatives And Their Use As Anti-Cancer Agents” (priority 2005, published 2008)

Tests used:
[1] = molecular target: T1, human Eg5 (monomeric construct Eg52-386) (Homo sapiens, UniProt P52732); experiment: In vitro inhibition of the ATPase activity of kinesin Eg5 (pyruvate kinase/lactate dehydrogenase coupled assay); assay type: biochemical; details: for % inhibition: in vitro ATPase activity of Eg5, inhibitor concentration not given; for IC50: in vitro inhibition of ATPase activity of Eg5
T1 construct: the basal ATPase activity was measured using 1-4 μM of Eg5 (2-386) for the above test; made in house
T1 sequence (P52732 2-386): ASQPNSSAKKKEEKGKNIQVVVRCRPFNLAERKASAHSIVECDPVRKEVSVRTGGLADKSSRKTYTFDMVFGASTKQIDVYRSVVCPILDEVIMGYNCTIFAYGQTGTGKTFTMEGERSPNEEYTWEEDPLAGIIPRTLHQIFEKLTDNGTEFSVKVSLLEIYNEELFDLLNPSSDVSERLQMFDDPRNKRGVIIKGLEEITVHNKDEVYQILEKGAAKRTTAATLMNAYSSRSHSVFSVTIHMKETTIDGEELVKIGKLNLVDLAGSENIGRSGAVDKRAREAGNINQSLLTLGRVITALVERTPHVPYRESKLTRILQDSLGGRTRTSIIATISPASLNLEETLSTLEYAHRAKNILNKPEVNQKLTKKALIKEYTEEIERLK
Protocol: All the assays were carried out at ambient temperature using the TECAN 96-well Sunrise photometer with a final volume of 200-250 μl per well. The ATPase contents were measured using the pyruvate kinase/lactate dehydrogenase protocol in an A25A buffer (25 mM potassium ACES, pH 6.9, 2 mM magnesium acetate, 2 mM potassium EGTA, 0.1 mM potassium EDTA, 1 mM mercaptoethanol) . In the […] of MT (microtubules) stabilized with paclitaxel, 300 nM of Eg52-386 were used for the test and, in the absence of MT, the basal ATPase activity was measured using 1-4 μM of Eg5 (2-386) for the above test or the malachite green test. For optimal solubility of the inhibitor, the assays were carried out in the presence of up to 2.2% of DMSO. […] The data were analyzed using a Kaleidagraph 3.0 (Synergy Software) and Microsoft Excel, so as to obtain the IC50 values.
The IC50 values for the in vitro inhibition of the ATPase activity of the kinesin motor proteins are determined according to the method described in S. DeBonis et al. (2003) Biochemistry 42, 338-349. Monastrol was used as a positive control. When necessary, the concentrations of inhibitor were adjusted according to the initial IC50. Each concentration of inhibitor was measured one to three times and averaged data are indicated with the margins of error±the standard deviation.

[2] = molecular target: T2, kinesin Eg5 (Homo sapiens, UniProt P52732); details: prior-art values given in the background; read-out: antimitotic effect IC50; cited from earlier work
T2 sequence (P52732 1-1056): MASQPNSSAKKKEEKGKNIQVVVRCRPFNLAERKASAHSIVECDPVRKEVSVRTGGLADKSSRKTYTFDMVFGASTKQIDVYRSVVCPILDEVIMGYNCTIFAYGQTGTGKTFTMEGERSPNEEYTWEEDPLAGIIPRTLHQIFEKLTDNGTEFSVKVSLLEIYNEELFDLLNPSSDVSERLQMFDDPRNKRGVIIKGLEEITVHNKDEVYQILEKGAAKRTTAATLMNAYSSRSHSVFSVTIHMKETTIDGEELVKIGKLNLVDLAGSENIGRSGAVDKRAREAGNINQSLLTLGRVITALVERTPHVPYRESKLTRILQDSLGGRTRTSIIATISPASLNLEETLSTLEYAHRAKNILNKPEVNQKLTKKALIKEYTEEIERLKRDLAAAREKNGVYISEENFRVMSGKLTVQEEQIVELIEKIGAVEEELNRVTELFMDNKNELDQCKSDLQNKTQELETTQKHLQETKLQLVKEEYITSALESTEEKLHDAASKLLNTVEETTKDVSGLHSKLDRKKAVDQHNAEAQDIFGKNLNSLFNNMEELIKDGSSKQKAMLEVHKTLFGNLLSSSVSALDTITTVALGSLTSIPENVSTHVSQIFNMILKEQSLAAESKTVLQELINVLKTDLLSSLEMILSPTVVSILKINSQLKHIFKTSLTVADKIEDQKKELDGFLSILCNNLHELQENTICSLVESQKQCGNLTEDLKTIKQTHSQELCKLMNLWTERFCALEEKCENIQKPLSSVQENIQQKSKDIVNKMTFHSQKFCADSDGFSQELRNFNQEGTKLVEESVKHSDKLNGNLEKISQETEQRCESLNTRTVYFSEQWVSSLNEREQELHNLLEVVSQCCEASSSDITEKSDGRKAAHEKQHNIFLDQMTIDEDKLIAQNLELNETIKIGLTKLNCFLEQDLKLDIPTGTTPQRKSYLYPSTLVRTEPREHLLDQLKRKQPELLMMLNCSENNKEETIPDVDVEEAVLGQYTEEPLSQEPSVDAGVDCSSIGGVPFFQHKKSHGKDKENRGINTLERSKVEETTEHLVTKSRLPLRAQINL

Row | SMILES | % inhibition [1] | IC50 [1] [µM] | IC50 [2] [µM]
1 | CCOC(=O)C1=C(C)NC(=S)NC1c1ccccc1 (stereo not drawn) [Compound 1] | 80% | 9.5 | 
2 | CCOC(=O)C1=C(C)NC(=S)NC1c1cccc(O)c1 (stereo not drawn) [Compound 2] | ≧90%^ | 16 | 
3 | CCOC(=O)C1=C(C)NC(=S)NC1c1ccc(O)cc1 (stereo not drawn) [Compound 3] | 20% | 212 | 
4 | COc1ccc(C2NC(=S)NC(C)=C2C(=O)OCc2ccccc2)cc1 (stereo not drawn) [Compound 4] | 40% | 6.6 | 
5 | CC1=C(C(=O)OCc2ccccc2)C(c2ccccc2)NC(=S)N1 (stereo not drawn) [Compound 5] | 40% | 11.8 | 
6 | CC1=C(C(=O)OCc2ccccc2)C(c2cccc(O)c2)NC(=S)N1 (stereo not drawn) [Compound 6] | ≧90%^ | 10.3 | 
7 | CCOC(=O)C1=C(C)N(C)C(=S)NC1c1ccccc1 (stereo not drawn) [Compound 7] | 60% | 21 | 
8 | CCOC(=O)C1=C(C)N(C)C(=S)NC1c1cccc(O)c1 (stereo not drawn) [Compound 8] | ≧90%^ | 6.3 | 
9 | CC(=O)C1=C(C)NC(=S)NC1c1ccccc1 (stereo not drawn) [Compound 9] | ≧90%^ | 24 | 
10 | CC(=O)C1=C(C)NC(=S)NC1c1ccc(O)cc1 (stereo not drawn) [Compound 10] | 80% | 56 | 
11 | CC1=C(C(=O)c2ccccc2)C(c2ccc(O)cc2)NC(=S)N1 (stereo not drawn) [Compound 11] | ≧90%^ | 14.7 | 
12 | CC(=O)C1=C(C)N(C)C(=S)NC1c1ccccc1 (stereo not drawn) [Compound 12] | 40% | 80 | 
13 | CC1=C(C(=O)c2ccccc2)C(c2ccccc2)NC(=S)N1C (stereo not drawn) [Compound 13] | ≧90%^ | 1.1 | 
14 | CC1=C(C(=O)OCc2ccccc2)C(c2cccc(O)c2)NC(=S)N1C (stereo not drawn) [Compound 14] | 48% | 9.8 | 
15 | CC(=O)C1=C(C)NC(=S)NC1c1cccc(O)c1 (stereo not drawn) [Compound 15] | ≧90%^ | 0.51 | 
16 | CC(=O)C1=C(C)N(C)C(=S)NC1c1cccc(O)c1 (stereo not drawn) [Compound 16] | 40% | 133 | 
17 | CC1=C(C(=O)c2ccccc2)C(c2cccc(O)c2)NC(=S)N1 (stereo not drawn) [Compound 17] | ≧90%^ | 0.25 | 

Row | SMILES | % inhibition [1] | IC50 [1] [µM] | IC50 [2] [µM]
18 | CC1=C(C(=O)c2ccccc2)C(c2cccc(O)c2)NC(=S)N1C (stereo not drawn) [Compound 18] | ≧90%^ |  | 
19 | CC1=C(C(=O)c2ccccc2)C(c2ccc(O)cc2)NC(=S)N1C (stereo not drawn) [Compound 19] | 87% | 24 | 
20 | CCOC(=O)C1=C(C)NC(=S)NC1c1cccc(Cl)c1 (stereo not drawn) [Compound 20] | 60% | 10 | 
21 | CCOC(=O)C1=C(C)NC(=S)NC1c1cccc(OC)c1 (stereo not drawn) [Compound 21] | 20% | 57 | 
22 | CCOC(=O)C1=C(C)NC(=S)NC1c1ccccc1F (stereo not drawn) [Compound 22] | 60% | 20 | 
23 | CCOC(=O)C1=C(C)NC(=S)NC1c1ccccc1Cl (stereo not drawn) [Compound 24] | 60% | 32 | 
24 | CCOC(=O)C1=C(C)NC(=S)NC1c1cccc(F)c1 (stereo not drawn) [Compound 25] | 60% | 14 | 
25 | CC1=C(C(=O)c2ccccc2)C(c2ccccc2)NC(=O)N1C (stereo not drawn) [Compound 26] | 84% | 5 | 
26 | CC1=C(C(=O)c2ccccc2)C(c2cccc(O)c2)NC(=O)N1C (stereo not drawn) [Compound 27] | 85% | 0.8 | 
27 | C=CCN1C(=S)NC(c2cccc(O)c2)C(C(=O)c2ccccc2)=C1C(F)(F)F (stereo not drawn) [Compound 28] | 70% | 17 | 
28 | CCOC(=O)C1=C(C(C)C)NC(=S)NC1c1cccc(O)c1 (stereo not drawn) [Compound 29] | 80% | 8.5 | 
29 | CCOC(=O)C1=C(CC)N(C)C(=S)NC1c1cccc(O)c1 (stereo not drawn) [Compound 30] | ≧90%^ | 10 | 
30 | CC1=C(C(=O)c2cccc(F)c2)C(c2cccc(O)c2)NC(=S)N1 (stereo not drawn) [Compound 31] | 87% | 0.82 | 
31 | CC1=C(C(=O)c2cccc(Cl)c2)C(c2cccc(O)c2)NC(=S)N1 (stereo not drawn) [Compound 32] | ≧90%^ | 0.5 | 
32 | CC1=C(C(=O)c2cccc(I)c2)C(c2cccc(O)c2)NC(=S)N1 (stereo not drawn) [Compound 33] | ≧90%^ | 0.5 | 
33 | COc1cccc(C(=O)C2=C(C)NC(=S)NC2c2cccc(O)c2)c1 (stereo not drawn) [Compound 34] | ≧90%^ | 1.1 | 
34 | CCOC(=O)C1=C(C)NC(=S)NC1c1cccc(O)c1 (stereo not drawn) [Monastrol] |  |  | > 14
